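96-well plates; 48 h exposure; 5 concentrations. Endpoints by linear interpolation between flanking doses. Not reached: highest tested concentration assigned. GI50 is the concentration that inhibits growth by half. At the TGI there is no net growth.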
Tests used:
Assay in all cases: DTP human tumour cell line panel, 48 h
LOX IMVI melanoma = test system: LOX IMVI melanoma
NCI-H522 lung = test system: NCI-H522 lung
OVCAR-4 ovarian = test system: OVCAR-4 ovarian
KM12 colon = test system: KM12 colon
UACC-62 melanoma = test system: UACC-62 melanoma
SW-620 colon = test system: SW-620 colon
HT29 colon = test system: HT29 colon
MOLT-4 leukemia = test system: MOLT-4 leukemia
UO-31 renal = test system: UO-31 renal
RXF 393 renal = test system: RXF 393 renal
MDA-MB-231 breast = test system: MDA-MB-231 breast
HL-60(TB) leukemia = test system: HL-60(TB) leukemia
SK-MEL-5 melanoma = test system: SK-MEL-5 melanoma
MALME-3M melanoma = test system: MALME-3M melanoma
K-562 leukemia = test system: K-562 leukemia
NCI-H226 lung = test system: NCI-H226 lung
MDA-MB-435 = test system: MDA-MB-435
MCF7 breast = test system: MCF7 breast
IGROV1 ovarian = test system: IGROV1 ovarian
786-0 renal = test system: 786-0 renal
SN12C renal = test system: SN12C renal
PC-3 prostate = test system: PC-3 prostate
UACC-257 melanoma = test system: UACC-257 melanoma
NCI-H23 lung = test system: NCI-H23 lung
HCT-15 colon = test system: HCT-15 colon
DU-145 prostate = test system: DU-145 prostate
EKVX NSCLC = test system: EKVX NSCLC
NCI/ADR-RES ovarian = test system: NCI/ADR-RES ovarian
COLO 205 colon = test system: COLO 205 colon
TK-10 renal = test system: TK-10 renal
SNB-75 CNS = test system: SNB-75 CNS
HCT-116 colon = test system: HCT-116 colon
BT-549 breast = test system: BT-549 breast
OVCAR-8 ovarian = test system: OVCAR-8 ovarian
SK-MEL-2 melanoma = test system: SK-MEL-2 melanoma
OVCAR-5 ovarian = test system: OVCAR-5 ovarian
T-47D breast = test system: T-47D breast
A498 renal = test system: A498 renal
HOP-92 NSCLC = test system: HOP-92 NSCLC
M14 melanoma = test system: M14 melanoma
SR leukemia = test system: SR leukemia
SK-OV-3 ovarian = test system: SK-OV-3 ovarian
HOP-62 NSCLC = test system: HOP-62 NSCLC
SK-MEL-28 melanoma = test system: SK-MEL-28 melanoma
MDA-MB-468 breast = test system: MDA-MB-468 breast
NCI-H460 lung = test system: NCI-H460 lung
HS 578T breast = test system: HS 578T breast
CAKI-1 renal = test system: CAKI-1 renal
SF-268 CNS = test system: SF-268 CNS
SNB-19 CNS = test system: SNB-19 CNS
U251 CNS = test system: U251 CNS
ACHN renal = test system: ACHN renal
SF-539 CNS = test system: SF-539 CNS
SF-295 CNS = test system: SF-295 CNS
A549 NSCLC = test system: A549 NSCLC
OVCAR-3 ovarian = test system: OVCAR-3 ovarian
RPMI-8226 leukemia = test system: RPMI-8226 leukemia
HCC-2998 colon = test system: HCC-2998 colon
CCRF-CEM leukemia = test system: CCRF-CEM leukemia

Which results are given for O=C(NNC(=S)NC(=O)c1ccccc1)c1ccc(OCc2nc3ccc(Cl)cc3[nH]2)cc1?
GI50 (LOX IMVI melanoma): 1260 nM; TGI (LOX IMVI melanoma): 2640 nM; GI50 (NCI-H522 lung): 3.3 µM; TGI (NCI-H522 lung): 13.4 µM; GI50 (OVCAR-4 ovarian): 2340 nM; TGI (OVCAR-4 ovarian): 14.8 µM; GI50 (KM12 colon): 1890 nM; TGI (KM12 colon): 4.11 µM; GI50 (UACC-62 melanoma): 1670 nM; TGI (UACC-62 melanoma): 3.11 µM; GI50 (SW-620 colon): 1990 nM; TGI (SW-620 colon): 4.55 µM; GI50 (HT29 colon): 3.45 µM; TGI (HT29 colon): 13.7 µM; GI50 (MOLT-4 leukemia): 2220 nM; TGI (MOLT-4 leukemia): 10.2 µM; GI50 (UO-31 renal): 1390 nM; TGI (UO-31 renal): 4.11 µM; GI50 (RXF 393 renal): 2320 nM; TGI (RXF 393 renal): 6.67 µM; GI50 (MDA-MB-231 breast): 1710 nM; TGI (MDA-MB-231 breast): 3.37 µM; GI50 (HL-60(TB) leukemia): 2220 nM; TGI (HL-60(TB) leukemia): 7.24 µM; GI50 (SK-MEL-5 melanoma): 1780 nM; TGI (SK-MEL-5 melanoma): 3.93 µM; GI50 (MALME-3M melanoma): 1530 nM; TGI (MALME-3M melanoma): 3.08 µM; GI50 (K-562 leukemia): 2790 nM; TGI (K-562 leukemia): > 100 µM; GI50 (NCI-H226 lung): 2020 nM; TGI (NCI-H226 lung): 7.82 µM; GI50 (MDA-MB-435): 1810 nM; TGI (MDA-MB-435): 4.37 µM; GI50 (MCF7 breast): 2910 nM; TGI (MCF7 breast): 17.7 µM; GI50 (IGROV1 ovarian): 2180 nM; TGI (IGROV1 ovarian): 5.33 µM; GI50 (786-0 renal): 2050 nM; TGI (786-0 renal): 6.12 µM; GI50 (SN12C renal): 1570 nM; TGI (SN12C renal): 3.16 µM; GI50 (PC-3 prostate): 1790 nM; TGI (PC-3 prostate): 4.96 µM; GI50 (UACC-257 melanoma): 2850 nM; TGI (UACC-257 melanoma): 10.5 µM; GI50 (NCI-H23 lung): 1780 nM; TGI (NCI-H23 lung): 3.7 µM; GI50 (HCT-15 colon): 567 nM; TGI (HCT-15 colon): 2130 nM; GI50 (DU-145 prostate): 3.02 µM; TGI (DU-145 prostate): 15.3 µM; GI50 (EKVX NSCLC): 2120 nM; TGI (EKVX NSCLC): 5.75 µM; GI50 (NCI/ADR-RES ovarian): 396 nM; TGI (NCI/ADR-RES ovarian): 2550 nM; GI50 (COLO 205 colon): 2660 nM; TGI (COLO 205 colon): 9.34 µM; GI50 (TK-10 renal): 4.49 µM; TGI (TK-10 renal): 21.2 µM; GI50 (SNB-75 CNS): 1480 nM; TGI (SNB-75 CNS): 4.78 µM; GI50 (HCT-116 colon): 1520 nM; TGI (HCT-116 colon): 3.51 µM; GI50 (BT-549 breast): 1540 nM; TGI (BT-549 breast): 3.14 µM; GI50 (OVCAR-8 ovarian): 2100 nM; TGI (OVCAR-8 ovarian): 5.07 µM; GI50 (SK-MEL-2 melanoma): 2080 nM; TGI (SK-MEL-2 melanoma): 4.95 µM; GI50 (OVCAR-5 ovarian): 1800 nM; TGI (OVCAR-5 ovarian): 3.93 µM; GI50 (T-47D breast): 3.12 µM; TGI (T-47D breast): 18.6 µM; GI50 (A498 renal): 1600 nM; TGI (A498 renal): 4.39 µM; GI50 (HOP-92 NSCLC): 2180 nM; TGI (HOP-92 NSCLC): 6.26 µM; GI50 (M14 melanoma): 1550 nM; TGI (M14 melanoma): 3.79 µM; GI50 (SR leukemia): 2520 nM; TGI (SR leukemia): 11.7 µM; GI50 (SK-OV-3 ovarian): 2050 nM; TGI (SK-OV-3 ovarian): 4.89 µM; GI50 (HOP-62 NSCLC): 1760 nM; TGI (HOP-62 NSCLC): 3.56 µM; GI50 (SK-MEL-28 melanoma): 1650 nM; TGI (SK-MEL-28 melanoma): 3.23 µM; GI50 (MDA-MB-468 breast): 2520 nM; TGI (MDA-MB-468 breast): 9.45 µM; GI50 (NCI-H460 lung): 1260 nM; TGI (NCI-H460 lung): 3.6 µM; GI50 (HS 578T breast): 2170 nM; TGI (HS 578T breast): 7.3 µM; GI50 (CAKI-1 renal): 2480 nM; TGI (CAKI-1 renal): 9.45 µM; GI50 (SF-268 CNS): 2420 nM; TGI (SF-268 CNS): 12 µM; GI50 (SNB-19 CNS): 2100 nM; TGI (SNB-19 CNS): 6.68 µM; GI50 (U251 CNS): 1710 nM; TGI (U251 CNS): 3.46 µM; GI50 (ACHN renal): 2040 nM; TGI (ACHN renal): 5.82 µM; GI50 (SF-539 CNS): 1760 nM; TGI (SF-539 CNS): 3.23 µM; GI50 (SF-295 CNS): 1270 nM; TGI (SF-295 CNS): 2980 nM; GI50 (A549 NSCLC): 1990 nM; TGI (A549 NSCLC): 4.49 µM; GI50 (OVCAR-3 ovarian): 1850 nM; TGI (OVCAR-3 ovarian): 4.55 µM; GI50 (RPMI-8226 leukemia): 2830 nM; TGI (RPMI-8226 leukemia): 21.6 µM; GI50 (HCC-2998 colon): 1680 nM; TGI (HCC-2998 colon): 3.35 µM; GI50 (CCRF-CEM leukemia): 1440 nM; TGI (CCRF-CEM leukemia): 10.5 µM
